The values below come from paper PMC9415947 (Pharmaceuticals, 2022).

One data set has as its target T1, PI3Kβ (Homo sapiens, UniProt P42338).
T1 construct: purchased Merck Millipore
The data set can be described thus: In vitro PI3K inhibition assay (ADP-Glo kinase assay), PI3Kβ. The format is biochemical. The method, then:
(§1) All compounds were tested in a biochemical assay that measured the inhibition of phosphatidylinositol […] production by PI3K isoforms using the ADP-Glo kinase assay (Promega). In addition, the effects of synthesized compounds on B cell proliferation were measured.
(§2) The potency and selectivity of compounds were assessed by measuring the ability of PI3K kinases to convert ATP to ADP during an enzymatic reaction in the presence of decreasing doses of tested compounds. The experiments were carried out using the ADP-Glo kinase assay kit (Promega), according to the manufacturer’s protocol. PI3Kα, PI3Kβ, PI3Kδ, and PI3Kγ have been purchased from Merck Millipore and phosphoinositol-4,5-bisphosphate (PIP2) lipid vesicles with phosphoserine from ThermoFisher Scientific were used as a substrate in the enzymatic reaction.
(§3) After the reaction, the ADP-Glo reagent and the kinase detection reagent were added sequentially with 40 min of incubation (25 °C, 600 rpm) after adding each reagent. Finally, the luminescence intensity was measured and the IC50 was calculated using GraphPad Prism 7 software. The presented results are the mean value of IC50 from at least two independent experiments.

A short description of data set [1]: Plasma protein binding, rat. The format is in vitro ADME. The source says: Table 5 Selected parameters measured for CPL302415 (6). | column: Plasma Protein Binding [%] / Rat
The nature of data set [2]: Metabolic stability in mouse liver microsomes (MLM). The format is in vitro ADME, mouse (CD-1). (Liver microsomes are a subcellular fraction often used to study metabolism.)
Data set [3] in a line: Plasma protein binding, mice. In kind it is in vitro ADME. The conditions noted are these: mouse. The source says: Table 5 Selected parameters measured for CPL302415 (6). | column: Plasma Protein Binding [%] / Mice
Data set [4] is described as follows: Metabolic stability in human liver microsomes (HLM). The conditions noted are these: read-out: Metabolic Stability HLM t½. The format is in vitro ADME.
The test system of another data set is CD19+ B cells. Nature of the data set: B cell (CD19+) proliferation assay, CFSE flow cytometry. In kind it is cell-based. As to conditions: Homo sapiens, B-cell, 96 h, read-out: IC50 CD19. The method, then: CD19 cells were isolated from PBMCs using magnetic beads (Stem Cell (Vancouver, Canada)) and then labeled with 2 µM of CFSE (Invitrogen (Waltham, MA, USA)).
After 4 days, cells were stained with LIVE/DEAD™ kit (Invitrogen (Waltham, MA, USA)). Samples were acquired using Attune NxT flow cytometer (Invitrogen) and analyzed using FlowJo software. Each biological assay was performed with cells isolated from a different donor. The presented results constitute the average percentage values of proliferating cells from 3 independent experiments.
Human PBMCs were isolated from buffy coats of healthy donors obtained from the Regional Blood Donation and Blood Medicine Center in Warsaw. Lymphocytes B: CD19+ cells were isolated from PBMCs on magnetic beads (Stem Cell), labeled with 2 µM CFSE (Invitrogen), and seeded on a 96-well plate (1 × 10^5 cells/well). B cells were activated by 2 µg/mL of αIgM (Jackson ImmunoResearch) and 1 µg/mL of ODN2006 (InvivoGen). Cells were incubated with increasing concentrations of compounds (range 0.03–10,000 nM). After 4 days, B cells were stained with LIVE/DEAD™ kit (Invitrogen), acquired using the Attune NxT flow cytometer (Invitrogen), and analyzed using FlowJo10 software. For data normalization, the percentage value of proliferating cells in each sample was divided by the average percentage value of positive control in a single experiment. IC50 values were calculated using a three-parameter dose–response inhibition function in GraphPad Prism.
(In general: A flow cytometer gives signals particle by particle.)

A short description of data set [5]: Plasma protein binding, human. In kind it is in vitro ADME. An excerpt:
Table 5 Selected parameters measured for CPL302415 (6). | column: Plasma Protein Binding [%] / Human

A further data set deals with T2, PI3Kα (Homo sapiens, UniProt P42336).
T2 construct: purchased Merck Millipore (methods text)
T2 sequence (P42336 whole entry): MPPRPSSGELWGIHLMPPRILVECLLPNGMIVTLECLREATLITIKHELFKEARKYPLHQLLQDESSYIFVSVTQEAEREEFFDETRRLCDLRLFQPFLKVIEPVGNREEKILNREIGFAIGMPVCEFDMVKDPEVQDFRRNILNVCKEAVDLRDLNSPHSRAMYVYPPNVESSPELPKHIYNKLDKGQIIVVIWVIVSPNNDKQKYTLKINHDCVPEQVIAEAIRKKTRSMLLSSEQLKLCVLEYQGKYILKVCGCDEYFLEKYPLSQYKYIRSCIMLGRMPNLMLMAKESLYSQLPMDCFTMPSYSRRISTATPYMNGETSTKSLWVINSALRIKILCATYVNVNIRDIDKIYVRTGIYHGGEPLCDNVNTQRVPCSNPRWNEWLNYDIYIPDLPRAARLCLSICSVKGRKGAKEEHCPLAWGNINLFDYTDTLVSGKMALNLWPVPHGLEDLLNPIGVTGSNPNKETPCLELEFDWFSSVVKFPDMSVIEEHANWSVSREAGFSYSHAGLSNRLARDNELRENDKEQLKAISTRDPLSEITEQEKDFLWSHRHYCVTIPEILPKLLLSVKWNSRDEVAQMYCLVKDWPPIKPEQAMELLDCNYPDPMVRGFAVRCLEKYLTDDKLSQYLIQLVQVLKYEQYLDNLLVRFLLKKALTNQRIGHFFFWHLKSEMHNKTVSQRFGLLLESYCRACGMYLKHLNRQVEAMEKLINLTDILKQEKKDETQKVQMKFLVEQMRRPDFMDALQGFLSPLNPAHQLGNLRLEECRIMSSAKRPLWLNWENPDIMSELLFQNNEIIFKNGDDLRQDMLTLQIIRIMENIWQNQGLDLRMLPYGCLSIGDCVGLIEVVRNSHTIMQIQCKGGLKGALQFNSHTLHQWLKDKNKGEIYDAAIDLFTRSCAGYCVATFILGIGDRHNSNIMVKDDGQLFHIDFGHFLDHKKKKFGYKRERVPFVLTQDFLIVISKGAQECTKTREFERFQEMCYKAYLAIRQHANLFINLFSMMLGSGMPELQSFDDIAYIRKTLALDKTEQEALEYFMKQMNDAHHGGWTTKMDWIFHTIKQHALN
T2 sequence (P27986 whole entry partner): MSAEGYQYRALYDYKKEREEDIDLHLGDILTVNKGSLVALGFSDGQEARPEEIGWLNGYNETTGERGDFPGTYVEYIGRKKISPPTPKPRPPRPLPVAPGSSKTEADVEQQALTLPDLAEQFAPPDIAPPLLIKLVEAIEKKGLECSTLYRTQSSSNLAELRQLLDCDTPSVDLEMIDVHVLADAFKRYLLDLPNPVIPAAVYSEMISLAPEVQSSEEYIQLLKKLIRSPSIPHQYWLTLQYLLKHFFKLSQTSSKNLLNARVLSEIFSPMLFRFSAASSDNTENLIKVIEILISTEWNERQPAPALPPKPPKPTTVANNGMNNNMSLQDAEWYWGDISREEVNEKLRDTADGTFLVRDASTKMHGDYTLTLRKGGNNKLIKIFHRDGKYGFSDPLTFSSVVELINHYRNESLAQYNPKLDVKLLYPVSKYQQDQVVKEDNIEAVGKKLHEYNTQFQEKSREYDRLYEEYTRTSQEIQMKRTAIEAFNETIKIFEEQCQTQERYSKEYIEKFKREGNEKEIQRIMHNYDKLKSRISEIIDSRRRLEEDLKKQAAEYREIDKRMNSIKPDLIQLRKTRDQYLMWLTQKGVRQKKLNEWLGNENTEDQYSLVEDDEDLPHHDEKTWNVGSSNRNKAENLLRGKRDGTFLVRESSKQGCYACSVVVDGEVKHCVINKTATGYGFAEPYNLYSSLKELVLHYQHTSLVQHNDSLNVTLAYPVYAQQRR
Nature of the data set: In vitro PI3K inhibition assay (ADP-Glo kinase assay), PI3Kα. In kind it is biochemical. As for the experimental part:
as §1, §2, §3

Another data set concerns the target T3, PI3Kγ (Homo sapiens, UniProt P48736).
T3 construct: purchased Merck Millipore
Nature of the data set: In vitro PI3K inhibition assay (ADP-Glo kinase assay), PI3Kγ. The format is biochemical. (In ADP-Glo the light output rises with the ADP produced.)

The nature of another data set: Bioavailability in dogs. As to conditions: dog, in vivo, depending on the formulation form, read-out: bioavailability F.
The nature of data set [6]: Kinetic solubility, shake-flask protocol. In kind it is physicochemical. The conditions noted are these: aqueous buffer, kinetic from dmso stock; phosphate-buffered saline pH 7.4, 25 °C.
Another data set in a line: PAMPA permeability. The format is in vitro ADME.
The nature of the next data set: Bioavailability in mice. The conditions noted are these: mouse, in vivo, depending on the formulation form, read-out: bioavailability F.
Data set [7] in a line: Plasma protein binding, monkey. In kind it is in vitro ADME. The source says: Table 5 Selected parameters measured for CPL302415 (6). | column: Plasma Protein Binding [%] / Monkey
A short description of data set [8]: Plasma protein binding, range across species. The format is in vitro ADME. As to conditions: human, monkey, mouse, rat, range depending on the species, read-out: plasma protein binding (PPBs).
For another data set, the target named is T4, PI3Kδ (Homo sapiens, UniProt O00329).
T4 construct: purchased Merck Millipore
T4 sequence (O00329 whole entry, looked up): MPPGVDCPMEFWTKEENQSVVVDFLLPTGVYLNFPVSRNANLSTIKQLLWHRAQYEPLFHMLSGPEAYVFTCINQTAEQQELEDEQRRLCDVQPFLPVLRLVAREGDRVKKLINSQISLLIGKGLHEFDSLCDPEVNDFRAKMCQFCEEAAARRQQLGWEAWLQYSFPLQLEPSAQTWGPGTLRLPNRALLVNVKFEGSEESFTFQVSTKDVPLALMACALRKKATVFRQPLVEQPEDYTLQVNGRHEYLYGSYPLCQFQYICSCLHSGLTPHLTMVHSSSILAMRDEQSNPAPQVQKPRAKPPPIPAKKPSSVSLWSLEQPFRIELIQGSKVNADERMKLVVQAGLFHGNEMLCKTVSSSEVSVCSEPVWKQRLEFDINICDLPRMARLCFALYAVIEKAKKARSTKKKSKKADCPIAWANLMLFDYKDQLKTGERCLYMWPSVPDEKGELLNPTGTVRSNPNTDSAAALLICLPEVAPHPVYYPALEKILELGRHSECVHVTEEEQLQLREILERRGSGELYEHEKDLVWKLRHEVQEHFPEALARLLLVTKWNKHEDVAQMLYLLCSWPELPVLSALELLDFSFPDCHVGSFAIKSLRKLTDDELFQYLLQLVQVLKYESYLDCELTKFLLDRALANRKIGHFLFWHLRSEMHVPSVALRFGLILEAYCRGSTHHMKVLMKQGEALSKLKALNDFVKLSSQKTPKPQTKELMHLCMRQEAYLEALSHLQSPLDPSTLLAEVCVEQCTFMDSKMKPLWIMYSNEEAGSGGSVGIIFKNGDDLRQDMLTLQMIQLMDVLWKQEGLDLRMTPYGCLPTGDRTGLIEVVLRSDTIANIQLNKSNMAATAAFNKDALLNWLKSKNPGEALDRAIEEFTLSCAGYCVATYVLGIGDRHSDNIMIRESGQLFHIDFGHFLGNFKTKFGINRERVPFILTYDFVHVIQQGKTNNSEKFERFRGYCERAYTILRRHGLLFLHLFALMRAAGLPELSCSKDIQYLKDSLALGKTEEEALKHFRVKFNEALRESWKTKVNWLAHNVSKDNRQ
The data set can be described thus: In vitro PI3K inhibition assay (ADP-Glo kinase assay), PI3Kδ. As to conditions: mean of two independent experiments. In kind it is biochemical.

Where [9] appears, read: mean of two independent experiments.

What is called IC50 is the concentration that gives 50% inhibition. The term bioavailability denotes the share of a dose that reaches the circulation, judged against a reference dose that is usually intravenous. For orientation: kinetic solubility means solubility judged after dilution from a stock solution rather than from solid. For orientation: Papp means a coefficient for how fast a substance crosses the barrier.

T3 sequence (P48736 whole entry): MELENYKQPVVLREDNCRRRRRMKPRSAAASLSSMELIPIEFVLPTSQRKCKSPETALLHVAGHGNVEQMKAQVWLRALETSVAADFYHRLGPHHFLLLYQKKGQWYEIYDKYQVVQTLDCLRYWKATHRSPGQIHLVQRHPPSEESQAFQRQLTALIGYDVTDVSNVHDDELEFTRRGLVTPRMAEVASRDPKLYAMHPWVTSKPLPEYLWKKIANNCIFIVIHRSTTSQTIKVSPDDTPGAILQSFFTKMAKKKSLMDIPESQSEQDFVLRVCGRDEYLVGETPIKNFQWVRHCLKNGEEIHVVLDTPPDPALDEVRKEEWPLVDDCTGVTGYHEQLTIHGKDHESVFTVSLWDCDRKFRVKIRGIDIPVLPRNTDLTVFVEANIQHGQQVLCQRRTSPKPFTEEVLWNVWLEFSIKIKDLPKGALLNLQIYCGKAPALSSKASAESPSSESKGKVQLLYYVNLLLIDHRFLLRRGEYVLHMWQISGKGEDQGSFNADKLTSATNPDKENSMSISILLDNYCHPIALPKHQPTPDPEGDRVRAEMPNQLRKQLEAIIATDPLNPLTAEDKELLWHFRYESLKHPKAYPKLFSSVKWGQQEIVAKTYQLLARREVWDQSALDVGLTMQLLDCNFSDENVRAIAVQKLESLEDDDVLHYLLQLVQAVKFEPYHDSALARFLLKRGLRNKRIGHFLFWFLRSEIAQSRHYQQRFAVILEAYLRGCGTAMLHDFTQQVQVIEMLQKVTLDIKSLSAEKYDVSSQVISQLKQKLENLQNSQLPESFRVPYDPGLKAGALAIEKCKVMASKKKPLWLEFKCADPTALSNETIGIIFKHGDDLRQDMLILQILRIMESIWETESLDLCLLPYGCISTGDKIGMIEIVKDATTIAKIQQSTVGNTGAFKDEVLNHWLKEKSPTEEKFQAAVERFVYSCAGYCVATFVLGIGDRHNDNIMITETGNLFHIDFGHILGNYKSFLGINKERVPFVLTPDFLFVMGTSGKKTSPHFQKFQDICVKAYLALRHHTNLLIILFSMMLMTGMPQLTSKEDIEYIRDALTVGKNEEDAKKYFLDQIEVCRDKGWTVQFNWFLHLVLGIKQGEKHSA
T1 sequence (P42338 whole entry, looked up): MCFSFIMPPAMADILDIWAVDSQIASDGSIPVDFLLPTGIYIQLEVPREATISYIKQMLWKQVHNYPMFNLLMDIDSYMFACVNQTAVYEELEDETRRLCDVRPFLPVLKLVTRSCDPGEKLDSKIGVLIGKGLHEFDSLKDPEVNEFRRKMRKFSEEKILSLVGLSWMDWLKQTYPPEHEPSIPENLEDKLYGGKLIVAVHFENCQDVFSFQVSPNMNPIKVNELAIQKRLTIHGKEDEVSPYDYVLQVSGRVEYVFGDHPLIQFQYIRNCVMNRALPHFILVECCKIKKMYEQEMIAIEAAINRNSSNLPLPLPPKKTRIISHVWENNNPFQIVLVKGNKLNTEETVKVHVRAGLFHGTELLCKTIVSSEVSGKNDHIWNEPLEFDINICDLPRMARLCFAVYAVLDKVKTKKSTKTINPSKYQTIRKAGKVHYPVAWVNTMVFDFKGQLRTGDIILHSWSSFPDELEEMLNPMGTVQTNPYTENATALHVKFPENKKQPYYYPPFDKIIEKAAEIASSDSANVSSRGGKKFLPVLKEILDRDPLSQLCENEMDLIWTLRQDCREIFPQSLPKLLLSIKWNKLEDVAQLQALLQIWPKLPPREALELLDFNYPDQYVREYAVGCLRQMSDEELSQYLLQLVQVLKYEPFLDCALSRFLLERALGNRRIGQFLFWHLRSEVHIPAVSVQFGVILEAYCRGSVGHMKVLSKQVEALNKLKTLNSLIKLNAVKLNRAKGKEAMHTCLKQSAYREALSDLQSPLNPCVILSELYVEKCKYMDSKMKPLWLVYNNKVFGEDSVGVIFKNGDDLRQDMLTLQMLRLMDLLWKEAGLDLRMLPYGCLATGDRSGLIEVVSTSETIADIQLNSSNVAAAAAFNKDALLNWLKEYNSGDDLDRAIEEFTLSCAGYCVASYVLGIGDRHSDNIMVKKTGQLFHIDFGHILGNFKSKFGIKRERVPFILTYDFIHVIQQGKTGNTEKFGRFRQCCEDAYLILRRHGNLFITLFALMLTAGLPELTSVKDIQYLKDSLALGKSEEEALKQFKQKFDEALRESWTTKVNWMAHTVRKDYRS

As for `CC(C)(C)N1CCN(Cc2cc3nc(-n4c(C(F)F)nc5ccccc54)cc(N4CCOCC4)n3n2)CC1` [Compound 6, 1-{2-[(4-tert-butylpiperazin-1-yl)methyl]-7-(morpholin-4-yl)pyrazolo[1,5-a]pyrimidin-5-yl}-2-(difluoromethyl)-1H-benzimidazole], the IC50 at PI3Kβ (setting [9]) stood at 25500 nM; with CD19+ B cells, 41 nM; on PI3Kα it was 1430 nM; at PI3Kγ (setting [9]) it was 16900 nM; against PI3Kδ it was 18 nM. In addition, the “Fold Selectivity β/δ” value at PI3Kβ (ratio IC50 PI3Kβ / IC50 PI3Kδ) was determined as 1415. The fraction unbound was 0.18 in data set [1]; 0.17 in [3]; 0.21 in data set [5]; 0.19 in data set [7]; 0.17 to 0.21 in [8]. Besides, in data set [2] (CD-1, read-out: Metabolic Stability MLM CL), the microsomal CLint at 1 μM amounted to 3.7 µL/min/mg. The half-life at 1 μM in data set [2] (CD-1, read-out: Metabolic Stability MLM t½) came to 6.3 h; in [4], 2.42 h. Also, the “Fold Selectivity α/δ” value at PI3Kα (ratio IC50 PI3Kα / IC50 PI3Kδ) is listed as 79. Also, the “Fold Selectivity γ/δ” value at PI3Kγ (ratio IC50 PI3Kγ / IC50 PI3Kδ) stood at 939. In addition, the bioavailability in “Bioavailability in dogs” was greater than 90%; in the data set “Bioavailability in mice”, greater than 55%. In addition, in data set [6], the kinetic solubility at 24 h was greater than 500 µM. In the data set “PAMPA permeability”, the apparent permeability coefficient (Papp) amounted to 13.3 ×10⁻⁶ cm/s.
